The source of these data is ChEMBL document CHEMBL1142904, “Modulating effects of a novel skin-lightening agent, alpha-lipoic acid derivative, on melanin production by the formation of DOPA conjugate products” (Bioorg Med Chem, 2007).

Data set [1] relates to B16. Nature of the data set: Inhibition of melanin synthesis in mouse B16 cells at 75 uM after 3 days. The format is functional. Conditions: B16, 72 h.
The target in data set [2] is T1, Tyrosinase (Agaricus bisporus) (UniProt O42713).
T1 sequence (whole entry): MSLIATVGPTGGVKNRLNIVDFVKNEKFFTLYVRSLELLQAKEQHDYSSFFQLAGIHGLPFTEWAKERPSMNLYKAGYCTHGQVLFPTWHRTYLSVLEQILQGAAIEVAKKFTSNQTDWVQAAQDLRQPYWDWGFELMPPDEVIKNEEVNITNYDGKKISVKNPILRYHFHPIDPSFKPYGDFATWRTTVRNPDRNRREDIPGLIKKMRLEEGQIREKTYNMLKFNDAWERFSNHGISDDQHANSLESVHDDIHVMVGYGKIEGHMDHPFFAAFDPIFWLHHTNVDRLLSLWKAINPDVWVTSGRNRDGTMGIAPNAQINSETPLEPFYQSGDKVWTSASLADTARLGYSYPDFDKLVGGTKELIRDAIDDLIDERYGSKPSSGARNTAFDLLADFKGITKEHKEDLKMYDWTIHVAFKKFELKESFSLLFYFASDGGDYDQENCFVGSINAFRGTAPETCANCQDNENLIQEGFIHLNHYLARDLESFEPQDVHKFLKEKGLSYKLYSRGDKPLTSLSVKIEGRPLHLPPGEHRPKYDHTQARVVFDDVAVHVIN
Description: Inhibition of mushroom tyrosinase catalyzed oxidation of L-DOPA assessed as DOPAchrome formation at 120 uM.

Data set [3] addresses T2, Tyrosinase (Agaricus bisporus, UniProt O42713).
T2 sequence (O42713 whole entry): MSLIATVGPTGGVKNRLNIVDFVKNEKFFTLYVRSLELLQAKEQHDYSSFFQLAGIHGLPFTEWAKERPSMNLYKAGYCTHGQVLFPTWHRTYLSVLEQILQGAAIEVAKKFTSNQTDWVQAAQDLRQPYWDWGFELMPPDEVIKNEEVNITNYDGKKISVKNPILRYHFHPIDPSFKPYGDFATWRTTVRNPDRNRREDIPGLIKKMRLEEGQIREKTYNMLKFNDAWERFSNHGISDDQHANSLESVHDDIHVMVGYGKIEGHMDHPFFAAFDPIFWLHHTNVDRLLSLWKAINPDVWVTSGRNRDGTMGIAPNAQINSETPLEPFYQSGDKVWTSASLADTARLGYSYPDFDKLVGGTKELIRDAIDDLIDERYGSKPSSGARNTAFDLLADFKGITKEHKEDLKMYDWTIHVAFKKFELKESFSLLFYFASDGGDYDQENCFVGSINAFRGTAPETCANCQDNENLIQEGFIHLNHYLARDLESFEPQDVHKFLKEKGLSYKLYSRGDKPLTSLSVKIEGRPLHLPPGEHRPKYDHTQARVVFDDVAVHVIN
Nature of the data set: Inhibition of mushroom tyrosinase.

Data set [4] addresses T1, Tyrosinase (Agaricus bisporus). Conditions: 4 uM.
Substrate in data set [5]: O=C(CCCCC1CCS[Zn]S1)NC(Cc1c[nH]cn1)C(=O)O
The settings on record: Agaricus bisporus; 1.3 uM.

Substrate in data set [6]: N[C@@H](Cc1ccc(O)c(O)c1)C(=O)O
Nature of the data set: Activity of mushroom tyrosinase. The settings on record: Agaricus bisporus.

Activity calls are given as the source filed them. No cut-off for these calls is given here.

Take `O=C(CCCCC1CC[S][Zn][S]1)NC(Cc1c[nH]cn1)C(=O)O` (centres undefined) [SODIUM ZINC DIHYDROLIPOYLHISTIDINATE]: the inhibition (in general, the drop in the measured response relative to a control, in per cent) at 75 µM in data set [1] stood at 41.5%. Also, in data set [2], the result was Active. Moreover, the IC50 (usually the concentration that inhibits the measured activity by half) in data set [3] worked out at 1300 nM. In data set [4], this molecule returned an inhibition of 82.9%.
Regarding `OC[C@H]1O[C@H](Oc2ccc(O)cc2)[C@H](O)[C@@H](O)[C@@H]1O`, in data set [1], the inhibition at 75 µM came out at 38.3%.
As for `O=C(O)CCCC[C@@H](S)CCS` [DIHYDROLIPOIC ACID], in data set [1], the inhibition at 75 µM was 36.3%. In data set [2], the outcome was Active.

B1: Tyrosinase (Agaricus bisporus), O42713 (protein)
chain: MSLIATVGPTGGVKNRLNIVDFVKNEKFFTLYVRSLELLQAKEQHDYSSFFQLAGIHGLPFTEWAKERPSMNLYKAGYCTHGQVLFPTWHRTYLSVLEQILQGAAIEVAKKFTSNQTDWVQAAQDLRQPYWDWGFELMPPDEVIKNEEVNITNYDGKKISVKNPILRYHFHPIDPSFKPYGDFATWRTTVRNPDRNRREDIPGLIKKMRLEEGQIREKTYNMLKFNDAWERFSNHGISDDQHANSLESVHDDIHVMVGYGKIEGHMDHPFFAAFDPIFWLHHTNVDRLLSLWKAINPDVWVTSGRNRDGTMGIAPNAQINSETPLEPFYQSGDKVWTSASLADTARLGYSYPDFDKLVGGTKELIRDAIDDLIDERYGSKPSSGARNTAFDLLADFKGITKEHKEDLKMYDWTIHVAFKKFELKESFSLLFYFASDGGDYDQENCFVGSINAFRGTAPETCANCQDNENLIQEGFIHLNHYLARDLESFEPQDVHKFLKEKGLSYKLYSRGDKPLTSLSVKIEGRPLHLPPGEHRPKYDHTQARVVFDDVAVHVIN
Take B1: the Km (as a rule, the concentration of substrate that gives half-maximal velocity) in data set [5] stood at 4.1 µM; in data set [6], 860 µM.
